Read-outs that look alike come from different tables or passages of the source.
Target: BTK (Homo sapiens, UniProt Q06187)
Assay: biochemical
[1] = read-out: BTK inhibition (%), 0.75 uM BTK, […] probe 3l, 15 min preincubation

Chain of BTK (Q06187 402-655 limits assumed): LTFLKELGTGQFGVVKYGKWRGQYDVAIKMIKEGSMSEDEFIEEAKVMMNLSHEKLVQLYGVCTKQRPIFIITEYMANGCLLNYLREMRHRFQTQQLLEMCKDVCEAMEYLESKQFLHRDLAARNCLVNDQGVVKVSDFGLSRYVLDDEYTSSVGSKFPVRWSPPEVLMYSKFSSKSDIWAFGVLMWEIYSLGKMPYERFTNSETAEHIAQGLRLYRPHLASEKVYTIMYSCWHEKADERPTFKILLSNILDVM

| Compound | inhibition at 10 µM [1] | inhibition at 10 µM (read-out: BTK inhibition (%)) |
| --- | --- | --- |
| O=C(O)c1ccco1 [PCM-0215122] | -21.8% |  |
| CCn1nc(C2CCN(C(=O)CCO)CC2)nc1-c1cnc(N)c(-c2nnc(C(C)(C)C)o2)n1 [PCM-0215697] | 9.7% |  |
| CCCCC(=O)OCC(=O)[C@H]1[C@H](C)C[C@H]2[C@@H]3C[C@H](F)C4=CC(=O)C=C[C@]4(C)[C@@]3(F)[C@@H](O)C[C@@]21C [PCM-0216248] | 2.3% |  |
| C1N2CN3CN1CN(C2)C3 [PCM-0086204] | -8.6% |  |
| C[C@H](Oc1ccc(S(C)(=O)=O)cc1C(=O)N1CCN(c2ncc(C(F)(F)F)cc2F)CC1)C(F)(F)F [PCM-0215624] | -20.1% |  |
| CC(C)(C)c1cc(C=C(C#N)C#N)cc(Br)c1O [PCM-0094972] | 57.2% |  |
| C[C@H]1CC(=O)C[C@@H]2CC[C@H]3[C@@H]4CC[C@H](O)[C@@]4(C)CC[C@@H]3[C@]21C [PCM-0214988] |  | -20.2% |
| CC(C)=CCC[C@](C)(O)[C@H]1CC[C@]2(C)[C@@H]1[C@H](O)C[C@@H]1[C@@]3(C)CC[C@H](O[C@@H]4O[C@H](CO)[C@@H](O)[C@H](O)[C@H]4O)C(C)(C)[C@@H]3CC[C@]12C [PCM-0216344] | 7.7% |  |
| CCn1cc(C(=O)O)c(=O)c2cc(F)c(N3CCNCC3)nc21 [PCM-0086249] | 4.7% |  |
| CCCN=C1S/C(=C\c2ccc(OC[C@H](O)CO)c(Cl)c2)C(=O)N1c1ccccc1C [PCM-0215632] | 9% |  |
| N#Cc1ccc2ncnc(NCCc3ccccc3)c2c1 [PCM-0215834] | -30.3% |  |
| CC#C[C@]1(O)CC[C@H]2[C@@H]3CCC4=CC(=O)CCC4=C3[C@@H](c3ccc(N(C)C)cc3)C[C@@]21C [PCM-0064713] | 38.6% |  |
| O=C1C(c2[nH]c3ccc(S(=O)(=O)O)cc3c2O)=Nc2ccc(S(=O)(=O)O)cc21 [PCM-0216597] | 23.9% |  |
| O=C(O)Cc1ccc(O)cc1 [PCM-0215121] | 25.7% |  |
| CC(C)C[C@H](NC(=O)[C@H](Cc1ccccc1)NC(=O)c1cnccn1)B(O)O [PCM-0094909] | 8.6% |  |
| CCC(C)CC(C)CCCCCCCCC(=O)N[C@H]1C[C@@H](O)[C@@H](NCCN)NC(=O)[C@@H]2[C@@H](O)CCN2C(=O)[C@H]([C@H](O)CCN)NC(=O)[C@H]([C@H](O)[C@@H](O)c2ccc(O)cc2)NC(=O)[C@@H]2C[C@@H](O)CN2C(=O)[C@H]([C@@H](C)O)NC1=O (stereo partly drawn) [PCM-0215354] | 11.1% |  |
| COc1ccc(CCNCC(O)COc2cccc(C)c2)cc1OC (stereo not drawn) [PCM-0216046] | -4.6% |  |
| CCCCCC1C(=O)CCC1CC(=O)OCCC (stereo not drawn) [PCM-0216258] | -0.8% |  |
| O=[N+]([O-])c1cn2c(n1)OC[C@@H](OCc1ccc(OC(F)(F)F)cc1)C2 [PCM-0094995] | 3.1% |  |
| O=C(Nc1cccc(C(F)(F)F)c1)c1cccc2cc(Oc3cc(CO)ncn3)ccc12 [PCM-0215724] | -0.7% |  |
| CN(C)N(C)C(=O)[C@@]1(Cc2ccccc2)CCCN(C(=O)[C@@H](Cc2c[nH]c3ccccc23)NC(=O)C(C)(C)N)C1 [PCM-0215100] | 4.6% |  |
| COc1ccc2c(c1)c(C1=C(c3c[nH]c4ccccc34)C(=O)NC1=O)cn2CCCN(C)C [PCM-0095393] | 24.8% |  |
| CCCCCCCCCCCC1=C(O)C(=O)C=C(O)C1=O [PCM-0095569] | 42.5% |  |
| O=S(=O)(NCCSSCCNS(=O)(=O)c1cc(Cl)ccc1Cl)c1cc(Cl)ccc1Cl [PCM-0215542] | 5.4% |  |
| CCCCOc1ccc(C(=O)CCN2CCCCC2)cc1 [PCM-0085815] | -10.1% |  |

| Compound | inhibition at 10 µM [1] | inhibition at 10 µM (read-out: BTK inhibition (%)) |
| --- | --- | --- |
| C[C@@H]1COCCN1c1cc(C2([S@](C)(=N)=O)CC2)nc(-c2ccnc3[nH]ccc23)n1 [PCM-0215530] | -4.1% |  |
| NCCc1ccc(O)c(O)c1 [PCM-0065130] | -2.3% |  |
| CN(Cc1cc(Br)cc(Br)c1N)C1CCCCC1 [PCM-0086201] | 29.6% |  |
| CCOc1cc(N)c(Cl)cc1C(=O)NCC1CN(Cc2ccc(F)cc2)CCO1 (stereo not drawn) [PCM-0095041] | -14% |  |
| CCn1c2ccccc2c2cc(Nc3ccnc(NCCCN4CCOCC4)n3)ccc21 [PCM-0215246] | -6.9% |  |
| Cc1ccc(S(=O)(=O)n2c(N)nc3ccccc32)cc1 [PCM-0095508] | -3.1% |  |
| CCN(CC)CCOc1ccc(C(=C(Cl)c2ccccc2)c2ccccc2)cc1 [PCM-0090069] | 13.2% |  |
| Cn1c2ccccc2c2c3c(c4c5ccccc5n(CCC#N)c4c21)CNC3=O [PCM-0215344] | 5.5% |  |
| O[C@@H]1CO[C@H]2[C@@H]1OC[C@@H]2O [PCM-0214776] | -3.9% |  |
| COc1ccccc1OCCNCC(O)COc1cccc2[nH]c3ccccc3c12 (stereo not drawn) [PCM-0065111] | -7.8% |  |
| Nc1nc(NC2CC2)c2ncn([C@H]3C=C[C@@H](CO)C3)c2n1 [PCM-0086436] | 9.4% |  |
| CC1(C)S[C@@H]2[C@H](NC(=O)C(C(=O)O)c3ccccc3)C(=O)N2[C@H]1C(=O)O (stereo partly drawn) [PCM-0214723] | 10.1% |  |
| COc1cc(OC)c(/C=C/S(=O)(=O)Cc2ccc(OC)c(NCC(=O)O)c2)c(OC)c1 [PCM-0094976] | -2.1% |  |
| CC(C)=CCC[C@](C)(O[C@@H]1O[C@H](CO[C@@H]2OC[C@@H](O)[C@H](O)[C@H]2O)[C@@H](O)[C@H](O)[C@H]1O)[C@H]1CC[C@]2(C)[C@@H]1[C@H](O)C[C@@H]1[C@@]3(C)CC[C@H](O[C@@H]4O[C@H](CO)[C@@H](O)[C@H](O)[C@H]4O)C(C)(C)[C@@H]3CC[C@]12C [PCM-0214676] | 35.8% |  |
| O=C(N[C@@H](c1ccccc1)[C@@H](O)C(=O)O)c1ccccc1 [PCM-0216301] | 9.3% |  |
| C[C@@H]1O[C@@H](O[C@H]2[C@H](O[C@H]3CC[C@@]4(C)[C@@H](CC[C@]5(C)[C@@H]4CC=C4[C@@H]6CC(C)(C)CC[C@]6(C(=O)O)CC[C@]45C)[C@]3(C)CO)OC[C@H](O[C@@H]3O[C@H](CO)[C@@H](O)[C@H](O)[C@H]3O)[C@@H]2O)[C@H](O)[C@H](O)[C@H]1O [PCM-0216539] | 52.5% |  |
| O=C(O)/C(S)=C/c1c[nH]c2ccc(F)cc12 [PCM-0215343] | 35.5% |  |
| Nc1nnc(-c2cccc(Cl)c2Cl)c(N)n1 [PCM-0065504] | 16.3% |  |
| O=C1NC(=O)/C(=C\c2ccc(-c3ccc(F)cc3)o2)S1 [PCM-0095359] | 11% |  |
| COc1ccc(-c2nc(N3CCOCC3)c3sc(CN(C)c4ncc(C(=O)NO)cn4)cc3n2)cn1 [PCM-0095517] | 15.2% |  |
| C[C@@H](C(=O)Nc1ccc(Cl)cc1)C1CCC(c2ccnc3ccc(F)cc23)CC1 (stereo partly drawn) [PCM-0216246] | 27% |  |
| Cn1nnnc1SCC1=C(C(=O)O)N2C(=O)[C@@H](NC(=O)[C@H](OC=O)c3ccccc3)[C@H]2SC1 [PCM-0214900] | 8.6% |  |
| Nc1nc(N)c2nc(-c3ccccc3)c(N)nc2n1 [PCM-0065015] | -4.7% |  |
| Cc1cn([C@H]2C[C@H](O)[C@@H](CO)O2)c(=O)[nH]c1=O [PCM-0215065] | -11.7% |  |
| C[C@@H]1O[C@@H](OC[C@H]2O[C@@H](Oc3c(-c4ccc(O)c(O)c4)oc4cc(O)cc(O)c4c3=O)[C@H](O)[C@@H](O)[C@@H]2O)[C@H](O)[C@H](O)[C@H]1O [PCM-0087529] | -2.1% |  |

| Compound | inhibition at 10 µM [1] | inhibition at 10 µM (read-out: BTK inhibition (%)) |
| --- | --- | --- |
| CC(C)c1cnn2c(NCc3ccccc3-n3cccn3)nc(OC3CCCNC3)nc12 (stereo not drawn) [PCM-0215792] | -2.8% |  |
| COc1cc2c(cc1OC)[C@H]1C[C@@H](OC(=O)[C@@H](N)C(C)C)[C@H](CC(C)C)CN1CC2 [PCM-0216567] | -27% |  |
| O=C1N=C(N2CCOCC2)CN1c1ccc(Cl)cc1 [PCM-0216140] | -1.5% |  |
| CC1=C(C(=O)OC2CCCCC2)C(c2ccc([N+](=O)[O-])cc2)C2=C(CC(C)(C)CC2=O)N1 (stereo not drawn) [PCM-0095815] | 46.3% |  |
| O=c1[nH]c(=S)[nH]c2nc(-c3ccccc3)c(-c3ccccc3)nc12 [PCM-0215641] | 17% |  |
| CC(C)Oc1ccc(C(=O)N[C@H](CNC(=O)CN(C)C)Cc2ccc(-c3cn4cccc([C@H](C)O)c4n3)cc2)cc1Cl [PCM-0215312] | -30.9% |  |
| CCOC(=O)c1ncn2c1CN(C)C(=O)c1cc(F)ccc1-2 [PCM-0065129] | 3.1% |  |
| N[C@@H](CSCCCO)C(=O)O [PCM-0095309] | 17.9% |  |
| Nc1nc(N)nc(N)n1 [PCM-0216468] | 13.9% |  |
| O[C@@H]1[C@H](O)[C@@H](O)CO[C@H]1O [PCM-0215084] | 0.8% |  |
| Oc1c(F)cc(-c2cnccc2-c2ccc(N3CCOCC3)cc2)cc1F [PCM-0215582] | -12.4% |  |
| CNC[C@H](O)c1ccc(O)c(O)c1 [PCM-0065121] | -9.3% |  |
| CC(=O)O[C@H]1CC[C@H]2[C@@H]3CCC4=CC(=O)CCC4=C3C=C[C@]12C [PCM-0215062] |  | 2.3% |
| COC(=O)C1=C(C#N)NC(C)=C(C(=O)OC(C)C)C1c1cccc([N+](=O)[O-])c1 (stereo not drawn) [PCM-0086361] | 14.8% |  |
| CCC(CC)(NC(=O)C(C)C)C(=O)N[C@@H](CCCN=C(N)N)C(=O)NC1(C(=O)NC(c2ccc(F)cc2)c2ccc(F)cc2)CCCC1 [PCM-0215267] | -14.7% |  |
| Nc1ccccc1NC(=O)c1ccc(CNc2nccc(-c3cccnc3)n2)cc1 [PCM-0094926] | 2.8% |  |
| O=c1c(-c2ccc(O)cc2)coc2cc(O)ccc12 [PCM-0065064] | -7.8% |  |
| O=C(NC1CC1)c1cc(-c2cccs2)on1 [PCM-0215520] | -2.3% |  |
| Nc1nc(=O)n([C@@H]2CS[C@H](CO)O2)cc1F [PCM-0086099] | -10.1% |  |
| COc1ccc(CCNCc2ccc(OCc3ccc(Cl)nc3)c(OC)c2)cc1OC [PCM-0215426] | -27.6% |  |
| CN(C)CCC[C@@]1(c2ccc(F)cc2)OCc2cc(C#N)ccc21 [PCM-0064474] | -6.2% |  |
| CCCOC(=O)c1cc(O)c(O)c(O)c1 [PCM-0215973] | 11.6% |  |
| COc1ccc(N(C(=O)Oc2c(C)cccc2C)c2ccnc(Nc3ccc(N4CCN(C)CC4)cc3)n2)c(OC)c1 [PCM-0215345] |  | 24.1% |
| Nc1ncnc2c1ncn2[C@@H]1O[C@H](CO)C[C@H]1O [PCM-0101885] | 42% |  |
| COc1cccc(-c2cc(=O)c3ccccc3o2)c1N [PCM-0065604] | 4.8% |  |

From PMC8041284, “Tunable Methacrylamides for Covalent Ligand Directed Release Chemistry” (Journal of the American Chemical Society, 2021)
